This note sets out measurements from ChEMBL document CHEMBL5724914, “Linking interpersonal differences in gut microbiota composition and drug biotransformation activity” (2024).

A short description of data set [1]: The drug is tested on Z-001 corresponding to mouse gut metagenome with ENA study accession number: PRJEB37062 and ENA sample accession number: ERS12561801 for biotransformation under anaerobic condition. The drug concentrations were measured over 9 timepoints collected between 0 and 24 hours of incubation by liquid-chromatography-coupled mass spectrometry (LC–MS). The following applies: 2 µM.

The conditions of data set [2]: human gut metagenome, 24 h, 2 µM.
Data set [3] can be described thus: The drug is tested on Z-029 corresponding to rat gut metagenome with ENA study accession number: PRJEB37062 and ENA sample accession number: ERS12561828 for biotransformation under anaerobic condition. The drug concentrations were measured over 9 timepoints collected between 0 and 24 hours of incubation by liquid-chromatography-coupled mass spectrometry (LC–MS). The following applies: 2 µM.

For data set [4] the following is noted: human gut metagenome, 24 h, 2 µM. The source holds these as a separate data set.
Data set [5] in a line: The drug is tested on Z-018 corresponding to pig gut metagenome with ENA study accession number: PRJEB37062 and ENA sample accession number: ERS12561817 for biotransformation under anaerobic condition. The drug concentrations were measured over 9 timepoints collected between 0 and 24 hours of incubation by liquid-chromatography-coupled mass spectrometry (LC–MS). The following applies: 2 µM.

The conditions of data set [6]: human gut metagenome, 24 h, 2 µM. This is another data set of the same source.
A short description of data set [7]: The drug is tested on WLS-069 corresponding to human gut metagenome with ENA study accession number: PRJEB37062 and ENA sample accession number: ERS12561748 for biotransformation under anaerobic condition. The drug concentrations were measured over 9 timepoints collected between 0 and 24 hours of incubation by liquid-chromatography-coupled mass spectrometry (LC–MS). To be noted: 2 µM.

The nature of data set [8]: The drug is tested on Z-011 corresponding to mouse gut metagenome with ENA study accession number: PRJEB37062 and ENA sample accession number: ERS12561811 for biotransformation under anaerobic condition. The drug concentrations were measured over 9 timepoints collected between 0 and 24 hours of incubation by liquid-chromatography-coupled mass spectrometry (LC–MS). To be noted: 2 µM.

A short description of data set [9]: The drug is tested on WLS-082 corresponding to human gut metagenome with ENA study accession number: PRJEB37062 and ENA sample accession number: ERS12561751 for biotransformation under anaerobic condition. The drug concentrations were measured over 9 timepoints collected between 0 and 24 hours of incubation by liquid-chromatography-coupled mass spectrometry (LC–MS). To be noted: 2 µM.

Data set [10] can be described thus: The drug is tested on Z-020 corresponding to rabbit gut metagenome with ENA study accession number: PRJEB37062 and ENA sample accession number: ERS12561819 for biotransformation under anaerobic condition. The drug concentrations were measured over 9 timepoints collected between 0 and 24 hours of incubation by liquid-chromatography-coupled mass spectrometry (LC–MS). The following applies: 2 µM.

For data set [11] the following is noted: human gut metagenome, 24 h, 2 µM. The source holds these as a separate data set.
The nature of data set [12]: The drug is tested on WLS-010 corresponding to human gut metagenome with ENA study accession number: PRJEB37062 and ENA sample accession number: ERS12561743 for biotransformation under anaerobic condition. The drug concentrations were measured over 9 timepoints collected between 0 and 24 hours of incubation by liquid-chromatography-coupled mass spectrometry (LC–MS). The following applies: 2 µM.

The conditions of data set [13]: human gut metagenome, 24 h, 2 µM. The source holds these as a separate data set.
For data set [14] the following is noted: human gut metagenome, 24 h, 2 µM. This is another data set of the same source.
The nature of data set [15]: The drug is tested on Z-028 corresponding to mouse gut metagenome with ENA study accession number: PRJEB37062 and ENA sample accession number: ERS12561827 for biotransformation under anaerobic condition. The drug concentrations were measured over 9 timepoints collected between 0 and 24 hours of incubation by liquid-chromatography-coupled mass spectrometry (LC–MS). To be noted: 2 µM.

Data set [16] is described as follows: The drug is tested on Z-012 corresponding to metagenome with ENA study accession number: PRJEB37062 and ENA sample accession number: ERS12561812 for biotransformation under anaerobic condition. The drug concentrations were measured over 9 timepoints collected between 0 and 24 hours of incubation by liquid-chromatography-coupled mass spectrometry (LC–MS). To be noted: 2 µM.

For data set [17] the following is noted: human gut metagenome, 24 h, 2 µM. This is another data set of the same source.
Data set [18] can be described thus: The drug is tested on WLS-052 corresponding to human gut metagenome with ENA study accession number: PRJEB37062 and ENA sample accession number: ERS12561747 for biotransformation under anaerobic condition. The drug concentrations were measured over 9 timepoints collected between 0 and 24 hours of incubation by liquid-chromatography-coupled mass spectrometry (LC–MS). To be noted: 2 µM.

Data set [19] can be described thus: The drug is tested on WLS-220 corresponding to human gut metagenome with ENA study accession number: PRJEB37062 and ENA sample accession number: ERS12561769 for biotransformation under anaerobic condition. The drug concentrations were measured over 9 timepoints collected between 0 and 24 hours of incubation by liquid-chromatography-coupled mass spectrometry (LC–MS). The following applies: 2 µM.

Data set [20] can be described thus: The drug is tested on Z-024 corresponding to pig gut metagenome with ENA study accession number: PRJEB37062 and ENA sample accession number: ERS12561823 for biotransformation under anaerobic condition. The drug concentrations were measured over 9 timepoints collected between 0 and 24 hours of incubation by liquid-chromatography-coupled mass spectrometry (LC–MS). The following applies: 2 µM.

Molecules are shown by their SMILES.
Note: call rule not given here.

Take `CN1CCC(=C2c3ccccc3CCc3cccnc32)CC1.O=C(O)/C=C\C(=O)O.O=C(O)/C=C\C(=O)O` [AZATADINE MALEATE]: the “Bacterial Biotransformation” value in [1], in [2], in data set [3], in data set [4], in data set [5] and in [6] was “Compound NOT metabolized” each time. In addition, the “Bacterial Biotransformation” value in data set [7], in data set [8], in data set [9], in data set [10], in data set [11] and in [12] was “Compound NOT metabolized” throughout. Further, the “Bacterial Biotransformation” value in [13], in data set [14], in [15], in data set [16], in [17] and in [18] was “Compound NOT metabolized” each time. Moreover, the “Bacterial Biotransformation” value in [19] and in data set [20] was “Compound NOT metabolized” each time.

Regarding `CC(=O)OCC(=O)[C@@]1(O)[C@@H](C)C[C@H]2[C@@H]3CCC4=CC(=O)C=C[C@]4(C)[C@@]3(F)[C@@H](O)C[C@@]21C` [BETAMETHASONE ACETATE], the “Bacterial Biotransformation” value is on record as “Compound metabolized” in data set [1]; “Compound NOT metabolized” in data set [2]; “Compound metabolized” in [3]; “Compound metabolized” in data set [4]; “Compound NOT metabolized” in data set [5]; “Compound metabolized” in data set [6]. Also, the “Bacterial Biotransformation” value in data set [7], in data set [8], in [9], in [10], in data set [11] and in [12] was “Compound metabolized” throughout. The “Bacterial Biotransformation” value is on record as “Compound metabolized” in data set [13]; “Compound metabolized” in [14]; “Compound metabolized” in data set [15]; “Compound NOT metabolized” in data set [16]; “Compound metabolized” in data set [17]; “Compound metabolized” in data set [18]. In addition, the “Bacterial Biotransformation” value in data set [19] and in data set [20] was “Compound metabolized” each time.

`CC(C)NCC(O)COc1ccc(CCOCC2CC2)cc1` (stereo not given) [BETAXOLOL]: the “Bacterial Biotransformation” value in [1], in data set [2], in [3], in data set [4], in [5] and in data set [6] was “Compound NOT metabolized” each time. Besides, the “Bacterial Biotransformation” value in data set [7] is “Compound NOT metabolized”; in data set [8], “Compound NOT metabolized”; in [9], “Compound NOT metabolized”; in data set [10], “Compound NOT metabolized”; in data set [11], “Compound metabolized”; in data set [12], “Compound NOT metabolized”. Also, the “Bacterial Biotransformation” value in data set [13] is recorded as “Compound metabolized”; in data set [14], “Compound metabolized”; in data set [15], “Compound NOT metabolized”; in data set [16], “Compound NOT metabolized”; in data set [17] it was “Compound NOT metabolized”; in data set [18] it was “Compound NOT metabolized”. Besides, the “Bacterial Biotransformation” value is on record as “Compound NOT metabolized” in data set [19] and “Compound metabolized” in data set [20].

On to `CC(C)(Oc1ccc(CCNC(=O)c2ccc(Cl)cc2)cc1)C(=O)O` [BEZAFIBRATE], for which the “Bacterial Biotransformation” value in data set [1] is “Compound NOT metabolized”; in data set [2] it was “Compound NOT metabolized”; in [3] it was “Compound NOT metabolized”; in data set [4], “Compound NOT metabolized”; in data set [5], “Compound NOT metabolized”; in data set [6] it was “Compound metabolized”. Further, the “Bacterial Biotransformation” value in [7] is recorded as “Compound metabolized”; in data set [8] it was “Compound NOT metabolized”; in data set [9], “Compound metabolized”; in data set [10] it was “Compound NOT metabolized”; in data set [11], “Compound metabolized”; in data set [12], “Compound metabolized”. For the same compound, the “Bacterial Biotransformation” value in data set [13] is listed as “Compound metabolized”; in data set [14], “Compound metabolized”; in data set [15], “Compound NOT metabolized”; in data set [16], “Compound NOT metabolized”; in [17], “Compound metabolized”; in data set [18], “Compound metabolized”. Also, the “Bacterial Biotransformation” value in data set [19] and in data set [20] was “Compound metabolized” in each case.

In the case of `CCN(CC)CCOCCOC(=O)C1(c2ccccc2)CCCC1.O=C(O)CC(O)(CC(=O)O)C(=O)O` [CARBETAPENTANE CITRATE], the “Bacterial Biotransformation” value is reported as “Compound NOT metabolized” in data set [1]; “Compound NOT metabolized” in data set [2]; “Compound NOT metabolized” in [3]; “Compound NOT metabolized” in data set [4]; “Compound metabolized” in [5]; “Compound metabolized” in [6]. Further, the “Bacterial Biotransformation” value is reported as “Compound metabolized” in [7]; “Compound NOT metabolized” in data set [8]; “Compound metabolized” in data set [9]; “Compound metabolized” in [10]; “Compound metabolized” in [11]; “Compound metabolized” in data set [12]. Also, the “Bacterial Biotransformation” value in data set [13] is given as “Compound metabolized”; in data set [14], “Compound metabolized”; in [15], “Compound NOT metabolized”; in data set [16] it was “Compound NOT metabolized”; in data set [17], “Compound metabolized”; in data set [18] it was “Compound metabolized”. For the same compound, the “Bacterial Biotransformation” value in [19] and in [20] was “Compound metabolized” in each case.
